Source: US20100160623A1, “CYCLODEXTRIN INCLUSION COMPLEXES AND METHODS OF PREPARING SAME” (CARGILL, INCORPORATED, priority 2006, published 2010)
Entries after “also recorded” stand apart in the source; their conditions may differ. Peptide text beside a SMILES is read from it.

Legend:
[1] = approximate class bounds given as e.g.; cited from earlier work
[2] = stabilization of citral in citric acid solution with added uncomplexed cyclodextrin (Example 20); type: physicochemical; details: 0.1 or 0.2 wt % cyclodextrin, 40 or 90 degrees F., 18-48 hours
Procedure: Citral (natural citral, SAP No. 921565, Lot No. 10000223137, available from Citrus & Allied) was cut in ethanol and diluted in citric acid to obtain a desired flavor level (e.g., 3 mL (1% citral in EtOH) per 2 L 0.6% citric acid; designated as “control” or “control freshly made” in Table 2). […] The raw area counts of various forms of citral or character-impact citrus flavor compounds (i.e., neral, geranial, and citral total, the sum of neral and geranial), and a variety of other compounds, including common citrus flavor off-note chemicals (e.g., carveol, p-cymene or p-cymene-8-ol, p,a-dimethyl styrene, mentha-1,5-dien-8-ol 1, and mentha-a,5-dien-8-ol 2) and chlorocyclohexane internal standard (designated as “CCH int std” in Table 2) were measured for each permutation of the experiment, as shown in Table 2. As used herein, the term “raw area counts” is used to refer to the area under the curve of a corresponding portion of a gas chromatogram when the samples are analyzed using a gas chromatography-mass spectrometry analysis, namely, a PEGASUS II Time-of-flight mass spectrometer (TOF-MS; available from LECO Corp., St. Joseph, Mich.). The chlorocyclohexane internal standard was included at 10 ppm per beverage to attempt to normalize the raw area counts of the other compounds of interest.

[3] = color stability of red 40 in vitamin fortified beverage exposed to light (Examples 39-40); type: physicochemical; details: south facing window, exposure to light
From the text: The mixture is returned to the original container and sealed. The sealed bottle is place in a south facing window for 5-6 weeks or until color changes are noted. Excess beverage is stored refrigerated in glass.

[4] = stabilization of citral to sunlight, off-notes by SPME GC/TOF-MS (Example 40A); type: physicochemical
From the text: The encapsulated citral products of Example 19 were studied by exposure to summer sun for 7 days as in the above example, but with the goal of monitoring thermal and photo oxidation products using two different concentrations of cyclodextrins. […] The citral complexes were studied at two different concentrations and were designed to deliver a constant citral level when used at 0.1 wt % or 0.2 wt % in acidic beverage base consisting of 10% sucrose and 0.5% citric acid. A 0.1 wt % citral in ethanol was used as a control. 500 ml of each sample was prepared and divided into six (6) four (4) oz samples with no allowed headspace and sealed. Analysis was preformed using SPME and a LECO Pegasus III GC/TOF-MS as previously reported; samples were analyzed in triplicate using a “Latin Square” sampling protocol.

For CSC [dimethyl sulfide], the “log(P) value (class of guest)” value [1] is listed as “less than about 1 but greater than zero”.

For CCc1occc(=O)c1O [ethyl maltol], the “log(P) value (class of guest)” value [1] is given as “less than about 1 but greater than zero”.

For OC[C@H]1O[C@@H]2O[C@H]3[C@H](O)[C@@H](O)[C@@H](O[C@H]4[C@H](O)[C@@H](O)[C@@H](O[C@H]5[C@H](O)[C@@H](O)[C@@H](O[C@H]6[C@H](O)[C@@H](O)[C@@H](O[C@H]7[C@H](O)[C@@H](O)[C@@H](O[C@H]8[C@H](O)[C@@H](O)[C@@H](O[C@H]1[C@H](O)[C@H]2O)O[C@@H]8CO)O[C@@H]7CO)O[C@@H]6CO)O[C@@H]5CO)O[C@@H]4CO)O[C@@H]3CO [β-cyclodextrin], the “amount of citral in the solution vs control” value [2] was “increased the amount of citral in the solution” and the “amount of off-notes formed vs control” value [2] was “off-note formation is inhibited; also recorded: decreased the amount of off-notes formed”.

In the case of OC[C@H]1O[C@@H]2O[C@H]3[C@H](O)[C@@H](O)[C@@H](O[C@H]4[C@H](O)[C@@H](O)[C@@H](O[C@H]5[C@H](O)[C@@H](O)[C@@H](O[C@H]6[C@H](O)[C@@H](O)[C@@H](O[C@H]7[C@H](O)[C@@H](O)[C@@H](O[C@H]1[C@H](O)[C@H]2O)O[C@@H]7CO)O[C@@H]6CO)O[C@@H]5CO)O[C@@H]4CO)O[C@@H]3CO [α-cyclodextrin], the “amount of off-notes formed vs control” value [2] is reported as “off-note formation is inhibited”.

In the case of hydroxypropyl-β-cyclodextrin, the “color stability (red 40)” value [3] is reported as “superior color stability”, the “color stability (red 40)” value ([3]; listed as hydroxyl propyl β-cyclodextrin) is reported as “best” and the “preventing flavor offnotes, compared with β-cyclodextrin” value [4] is reported as “less effective than β-cyclodextrin in preventing flavor offnotes”.

For CC1=C(O)C(=O)C(C)O1 (centres unmarked) [furaneol, 4-hydroxy-2,5-dimethyl-3(2H) furanone], the “log(P) value (class of guest)” value [1] is listed as “less than about 1 but greater than zero”.

In the case of COC(=O)[C@H](Cc1ccccc1)NC(=O)[C@@H](N)CC(=O)O [aspartame] (H-Asp-Phe-OMe), the “log(P) value (class of guest)” value [1] is listed as “less than about 1 but greater than zero”.

In the case of COc1cc(S(=O)(=O)[O-])c(C)cc1N=Nc1c(O)ccc2cc(S(=O)(=O)[O-])ccc12.[Na+].[Na+] [red 40 color], the “color stability (red 40)” value [3] is reported as “degrades upon exposure to light”.
